Measured values as given in ChEMBL document CHEMBL6096733, “Structure-Based Virtual Screening Identifies 2-Arylthiazole-4-Carboxylic Acids as a Novel Class of Nanomolar Affinity Ligands for the CaMKIIα Hub Domain” (J Med Chem, 2025).

Tests used:
[1] = target: T1, Calcium/calmodulin-dependent protein kinase type II subunit alpha (Homo sapiens, UniProt Q9UQM7); assay: Induction of thermal stabilization of recombinant wildtype human CAMKIIalpha hub domain (345 to 475 residues) extracted from Escherichia coli BL21 (DE3) cells by differential scanning fluorimetric analysis; conditions: dose 0.625-320 µM
T1 sequence (Q9UQM7 whole entry, the tested form may be a part): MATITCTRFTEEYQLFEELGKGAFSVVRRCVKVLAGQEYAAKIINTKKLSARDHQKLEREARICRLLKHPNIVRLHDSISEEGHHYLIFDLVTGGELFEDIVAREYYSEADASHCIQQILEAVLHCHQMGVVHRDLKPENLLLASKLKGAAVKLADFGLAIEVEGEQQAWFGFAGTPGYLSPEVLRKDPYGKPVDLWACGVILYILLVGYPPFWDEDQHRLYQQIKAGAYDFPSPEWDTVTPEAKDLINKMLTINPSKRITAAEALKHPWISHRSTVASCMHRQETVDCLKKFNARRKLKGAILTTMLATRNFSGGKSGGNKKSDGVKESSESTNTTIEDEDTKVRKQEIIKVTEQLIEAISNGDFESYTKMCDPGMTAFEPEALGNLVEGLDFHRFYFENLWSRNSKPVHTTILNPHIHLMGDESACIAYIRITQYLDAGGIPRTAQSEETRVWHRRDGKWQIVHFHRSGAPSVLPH

[2] = target: T2, Calcium/calmodulin-dependent protein kinase type II subunit alpha (Rattus norvegicus, UniProt P11275); assay: Inhibition of […] binding to CaMKIIalpha in rat brain cortical membrane assessed as inhibition constant incubated for 1 hrs by TopCount NXT microplate scintillation counter analysis; format: cell membranes, Cortex
T2 sequence (P11275 whole entry, the tested form may be a part): as the sequence (Q9UQM7 whole entry, the tested form may be a part) above, with S324N counted along it

[3] = target: T1, Calcium/calmodulin-dependent protein kinase type II subunit alpha; assay: Induction of thermal stabilization of recombinant wildtype human CAMKIIalpha hub domain (345 to 475 residues) extracted from Escherichia coli BL21 (DE3) cells assessed as change in melting temperature at 0.625 to 320 microM by differential scanning fluorimetric analysis; conditions: dose 0.625-320 µM
[4] = Ratio of unbound brain to plasma drug concentration in mouse at 10 mg/kg, po measured after 0.5 hrs by LC-MS/MS analysis; format: ADME, organism-based; conditions: brain and plasma, read-out: K(p,uu,brain)
[5] = Metabolic stability in pooled human plasma assessed as parent compound remaining at 20 uM measured immediately by LC-MS analysis; format: ADME, cell-free; conditions: read-out: Stability
[6] = Metabolic stability in pooled human plasma assessed as parent compound remaining at 20 uM measured after 120 mins by LC-MS analysis; format: ADME, cell-free; conditions: read-out: Stability
[7] = Metabolic stability in pooled human plasma assessed as parent compound remaining at 20 uM measured after 30 mins by LC-MS analysis; format: ADME, cell-free; conditions: read-out: Stability
[8] = Ratio of drug concentration in mouse brain to plasma at 10 mg/kg, po measured after 0.5 hrs by LC-MS/MS analysis; format: ADME, organism-based; conditions: brain and plasma, read-out: BPR
[9] = Metabolic stability in pooled CD-1 mouse liver microsomes assessed as parent compound remaining at 10 uM measured immediately in presence of NADPH regeneration system by LC-MS analysis; format: ADME, Microsome; conditions: read-out: Stability
[10] = Metabolic stability in pooled human plasma assessed as parent compound remaining at 20 uM measured after 60 mins by LC-MS analysis; format: ADME, cell-free; conditions: read-out: Stability
[11] = Prodrug conversion in mouse assessed as ratio of 2-(2,6-dichlorophenyl)thiazole-4-carboxylic acid concentration in brain to plasma at 10 mg/kg, po measured after 0.5 hrs by LC-MS/MS analysis; format: ADME, organism-based
[12] = Metabolic stability in pooled CD-1 mouse liver microsomes assessed as parent compound remaining at 10 uM measured after 15 mins in presence of NADPH regeneration system by LC-MS analysis; format: ADME, Microsome; conditions: read-out: Stability
[13] = Prodrug conversion in mouse plasma assessed as 2-(2,6-dichlorophenyl)thiazole-4-carboxylic acid concentration at 10 mg/kg, po measured after 0.5 hrs by LC-MS/MS analysis; format: ADME, organism-based; conditions: in vivo
[14] = Prodrug conversion in mouse brain assessed as 2-(2,6-dichlorophenyl)thiazole-4-carboxylic acid concentration at 10 mg/kg, po measured after 0.5 hrs by LC-MS/MS analysis; format: ADME, organism-based; conditions: in vivo
[15] = Drug concentration in mouse plasma at 10 mg/kg, po measured after 0.5 hrs by LC-MS/MS analysis; format: ADME, organism-based
[16] = Prodrug conversion in mouse assessed as ratio of unbound 2-(2,6-dichlorophenyl)thiazole-4-carboxylic acid concentration in brain to plasma at 10 mg/kg, po measured after 0.5 hrs by LC-MS/MS analysis; format: ADME, organism-based
[17] = Metabolic stability in pooled CD-1 mouse liver microsomes assessed as parent compound remaining at 10 uM measured after 30 mins in presence of NADPH regeneration system by LC-MS analysis; format: ADME, Microsome; conditions: read-out: Stability
[18] = Chemical stability of compound in phosphate buffer solution at pH 7.4; format: physicochemical
[19] = Metabolic stability in pooled CD-1 mouse liver microsomes assessed as parent compound remaining at 10 uM measured after 60 mins in presence of NADPH regeneration system by LC-MS analysis; format: ADME, Microsome; conditions: read-out: Stability
[20] = Drug concentration in mouse brain at 10 mg/kg, po measured after 0.5 hrs by LC-MS/MS analysis; format: ADME, organism-based; conditions: read-out: Ct
[21] = target: T2, Calcium/calmodulin-dependent protein kinase type II subunit alpha; assay: Inhibition of [3H]NCS-382 binding to CaMKIIalpha in rat brain cortical membrane assessed as inhibition constant incubated for 1 hrs by TopCount NXT microplate scintillation counter analysis; format: cell membranes, Cortex
[22] = Prodrug conversion in mouse plasma assessed as 2-(2,6-dichlorophenyl)thiazole-4-carboxylic acid release at 10 mg/kg, po measured after 0.5 hrs by LC-MS/MS analysis; format: ADME, organism-based; conditions: in vivo
[23] = Prodrug conversion in mouse brain assessed as 2-(2,6-dichlorophenyl)thiazole-4-carboxylic acid release at 10 mg/kg, po measured after 0.5 hrs by LC-MS/MS analysis; format: ADME, organism-based; conditions: in vivo

Cc1cccc(C)c1-c1nc(C(=O)O)cs1
Activity [1]: Dose-dependent-effect
Ki ([2]; read-out: Ki): 0.1 µM
ΔTm [3]: 18 °C

CCc1ccc(-c2nc(C(=O)O)cs2)cc1
Ki ([2]; read-out: Ki): 5.4 µM

O=C(O)c1csc(-c2c(C(F)(F)F)cccc2C(F)(F)F)n1
Ki ([2]; read-out: Ki): > 10 µM

CC(C)(C)OC(=O)c1csc(-c2c(Cl)cccc2Cl)n1
Kp uu at 0.5 h [4]: 0.49
remaining at 0 min, 20 µM [5]: 100%
remaining at 2 h, 20 µM [6]: 70%
remaining at 0.5 h, 20 µM [7]: 78%
Ki ([2]; read-out: Ki): 56.4 µM
Kp at 0.5 h [8]: 4.7
remaining at 0 min, 10 µM [9]: 100%
remaining at 1 h, 20 µM [10]: 74%
BPR [11]: 0.03
remaining at 0.25 h, 10 µM [12]: 70%
Cp [13]: 2154 ng/mL
Ct [14]: 54 ng/g
concentration at 0.5 h [15]: 137 ng/mL
K(p,uu,brain) [16]: 0.13
remaining at 0.5 h, 10 µM [17]: 53%
Stability [18]: Unstable
remaining at 1 h, 10 µM [19]: 45%
concentration at 0.5 h [20]: 627 ng/g

O=C(O)Cc1csc(-c2c(Cl)cccc2Cl)n1
Ki ([2]; read-out: Ki): > 10 µM

Cc1ccc(-c2nc(C(=O)O)cs2)cc1
Ki ([2]; read-out: Ki): 2.3 µM
Ki ([2]; read-out: pKi (converted)): 12.6 µM

O=C(O)c1csc(-c2ccccc2Br)n1
Ki ([21]; read-out: Ki): 180 nM
Ki ([21]; read-out: pKi (converted)): 158 nM

COc1ccc(-c2nc(C(=O)O)cs2)cc1
Ki ([2]; read-out: Ki): 7.2 µM

CC(C)(C)COC(=O)c1csc(-c2c(Cl)cccc2Cl)n1
remaining at 0 min, 20 µM [5]: 100%
remaining at 2 h, 20 µM [6]: 63%
remaining at 0.5 h, 20 µM [7]: 75%
Ki ([2]; read-out: Ki): > 100 µM
Drug metabolism [22]: metabolite_notdetected
Drug metabolism [23]: metabolite_notdetected
remaining at 0 min, 10 µM [9]: 100%
remaining at 1 h, 20 µM [10]: 65%
remaining at 0.25 h, 10 µM [12]: 84%
remaining at 0.5 h, 10 µM [17]: 75%
Stability [18]: Unstable
remaining at 1 h, 10 µM [19]: 59%

O=C(O)C1=CC(O)CC1 (centres undefined)
Ki ([2]; read-out: pKi (converted)): 0.126 µM

O=C(Nc1nc(C(=O)O)cs1)c1ccccc1
Ki ([21]; read-out: Ki): > 100000 nM

O=C(O)c1csc(-c2ccccc2O)n1
Ki ([21]; read-out: Ki): 8000 nM

COc1ccccc1-c1nc(C(=O)O)cs1
Ki ([21]; read-out: Ki): 3100 nM

O=C(O)c1csc(/C=C/c2ccccc2)n1
Ki ([2]; read-out: Ki): 3.2 µM

O=C(O)c1csc(-c2ccccc2Cl)n1
Ki ([2]; read-out: Ki): 1 µM

O=C(O)c1csc(-c2ccc(Cl)c(Cl)c2)n1
Ki ([2]; read-out: Ki): 1.6 µM

O=C(O)c1csc(-c2ccccc2I)n1
Ki ([21]; read-out: Ki): 160 nM

Cc1ccc(-c2nc(CC(=O)O)cs2)cc1
Ki ([2]; read-out: Ki): 2.9 µM

O=C(O)c1csc(-c2ccc(-c3ccccc3)cc2)n1
Ki ([2]; read-out: Ki): 5 µM

O=C(O)c1csc(-c2ccccc2)n1
Ki ([2]; read-out: Ki): 11.5 µM

O=C(O)c1cnc(-c2ccccc2)s1
Ki ([2]; read-out: Ki): > 100 µM

O=C(O)c1csc(-c2cccc3ccccc23)n1
Ki ([2]; read-out: Ki): 0.22 µM
